From PMC3991622, “Immobilised Histidine Tagged β 2-Adrenoceptor Oriented by a Diazonium Salt Reaction and Its Application in Exploring Drug-Protein Interaction Using Ephedrine and Pseudoephedrine as Probes” (PLoS ONE, 2014)

Columns and labels:
β 2-AR [1] = details: on β 2-AR; response relative to isoproterenol; cited from earlier work
Immobilized β 2-AR = tested on: T1, Immobilized β 2-AR; assay: Specificity and stability of the oriented β 2-AR column (retention of control drugs); type: binding, Sus scrofa; details: 20 mM phosphate buffer (pH 7.4), 0.2 mL/min; for Retention times, Immobilized β 2-AR: 37 °C, void time 1.6 min
T1 construct: made in house; host or cells: E. coli BL21 (DE3)
Protocol: (§1) The column containing the oriented immobilised β 2-AR was prepared by packing the stationary phase into a stainless steel column (2.1 mm×5.0 cm) using the slurry method at a pressure of 4.0×10^7 Pa. Phosphate buffer (20 mM, pH 7.4) was used as the slurry solution. The control column containing exposed silica gel and attached histidine was prepared using the same synthesis method as that of the β 2-AR column.
(§2) The mobile phases were prepared by adding 0 to 40 µM of ephedrine hydrochloride as the competing agent to 20 mM phosphate buffer (pH 7.4). All of the mobile phases were filtrated with 0.45 µm Millipore HV filters and degassed by ultrasonication before HPAC analysis. Working solutions of ephedrine and pseudoephedrine were prepared by dissolving the drugs in phosphate buffer (20 mM, pH 7.4) to a concentration of 1.0 mM. The detection wavelength was 220 nm with an injection of 5.0 µL for each drug. The flow rate was 0.2 mL/min for all of the analyses. […] The capacity factor (k') was calculated by detecting the retention time in triplicate for each injected sample using the equation k' = (tR−t0)/t0. When the injection solute was pseudoephedrine, Eq. (1) was used to plot the curve of 1/(k'-X) and [A], whereas Eq. (2) was used to achieve the plot between [drawing 5] and [A] when ephedrine was used as the analyte.
The specificity of the oriented β 2-AR column was tested by determining the retention times of specific drugs on the receptor.

β 2-AR [2] = molecular target: T2, β 2-AR (Sus scrofa, UniProt Q28997); assay: Zonal elution on oriented immobilised β 2-AR column (HPAC); type: binding; details: for concentration of the binding site / capacity factor k′ / association constant / association constant KA: 37 °C; for types of binding site on β 2-AR: linear zonal elution plot
T2 construct: made in house; host or cells: E. coli BL21 (DE3)
Protocol: The binding of ephedrine and pseudoephedrine to the oriented immobilised β 2-AR was determined by zonal elution. The theory assumes that a known concentration of a competing agent (I) continuously passes through a column containing an immobilised ligand (L) while the injecting volume of an analyte (A) is small enough to be neglected compared with the concentration of I in the mobile phase. Assuming I and A have direct competition at a single binding site on L and the interactions have association/dissociation kinetics, Eq. (1) can be used to calculate the binding of A and I to L [24], [25]. [drawing 1] (1) where X is the capacity factor for A due to the existence of a second type of binding site on the column, and k' is the overall capacity factors of A ascribed to all the types of sites. In this case, the equation assumes the capacity factors of A produced by the individual sites are additive, and an independent estimate of the capacity factors due to the second type of site can be obtained, allowing for the capacity factor attributed to the first type of site 1 (Site 1) to be measured by k 1' = k'-X.
When the column is equilibrated with an eluent at concentration [A] and [I] equal to zero, and the retention of compound A is injected as a perturbation, Eq. (2) is used to determine the binding of A to L: [drawing 2] (2)
Assuming a single type of binding site, a linear expression can be obtained by plotting 1/sqrt (k') as a function of [A] to determine mL and K A. For two types of binding sites, a second term is added to the k' expressions.
as §1, §2

β 2-AR [3] = molecular target: T2, β 2-AR; assay: Thermodynamic study (zonal elution at 10-45 °C, van't Hoff equation) on oriented immobilised β 2-AR; type: binding; details: for decrease of association constant / decrease of capacity factor / increase of binding sites: 10 °C to 45 °C; for capacity factor on the β 2-AR column: concentration 4.0 µM; for Kd: Association constant; for main force of the binding: semi-empirical rules of Ross et al.; for ΔS^θ: van't Hoff plot, 10-45 °C
From the text: The thermodynamic interaction between β 2-AR and ephedrine plus pseudoephedrine was described by the van't Hoff equation, listed as Eq. (3) and (4). [drawing 3] (3) [drawing 4] (4)
In these equations, R is the ideal gas constant (8.31 J/mol/K), and T is the temperature in Kelvin. According to the semi-empirical rules summarised by Ross et al., when ΔG^θ<0, ΔH^θ>0 and ΔS^θ>0, hydrophobic interaction is the main interaction force during the binding process of a drug to protein. […] If ΔG^θ<0, ΔH^θ<0 and ΔS^θ<0, Van der Waals forces or hydrogen bonds are the major forces of the binding.
The thermodynamic investigation of ephedrine and pseudoephedrine on oriented immobilised β 2-AR was performed at 10, 20, 30, 37 and 45 °C. Eq. (3) and (4) were used to calculate the free energy, enthalpy and entropy during the binding of the two drugs to the receptor. The semi-empirical rules by Ross et al. were utilised to reveal the binding mechanism process of the two drugs to β 2-AR.

papillary muscle = tested on: papillary muscle; design: method as in PMID 3004791; details: positive inotropic effect on the papillary muscle; cited from earlier work
wild-type β 2-AR = molecular target: wild-type β 2-AR; design: method as in PMID 8095262; details: read-out: dissociation constant; cited from earlier work
β2-ARGsαS = molecular target: β2-ARGsαS; design: method as in PMID 9478963; details: read-out: dissociation constant; cited from earlier work
[4] = 12 µM ephedrine in mobile phase
[5] = 24 µM ephedrine in mobile phase
[6] = 30 µM ephedrine in mobile phase

T2 sequence (Q28997 whole entry): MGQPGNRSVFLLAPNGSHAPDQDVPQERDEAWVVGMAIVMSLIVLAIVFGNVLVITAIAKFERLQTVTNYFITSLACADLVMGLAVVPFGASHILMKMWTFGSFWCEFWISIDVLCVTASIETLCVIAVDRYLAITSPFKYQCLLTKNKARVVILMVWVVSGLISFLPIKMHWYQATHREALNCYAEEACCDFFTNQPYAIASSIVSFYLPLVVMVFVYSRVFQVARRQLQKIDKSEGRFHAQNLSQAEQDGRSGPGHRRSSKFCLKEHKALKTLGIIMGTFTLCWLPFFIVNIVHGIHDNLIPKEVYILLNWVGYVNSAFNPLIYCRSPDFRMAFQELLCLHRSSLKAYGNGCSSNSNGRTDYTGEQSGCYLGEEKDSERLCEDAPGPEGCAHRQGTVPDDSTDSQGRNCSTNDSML

CN[C@H](C)[C@@H](O)c1ccccc1 [1S,2R-ephedrine]
EC50 (β 2-AR [1]): 72 µM

CN(C)C(=O)Oc1cc(OC(=O)N(C)C)cc(C(O)CNC(C)(C)C)c1 (centres unmarked) [bambuterol]
peak retained or non-retained on β 2-AR column (Immobilized β 2-AR): Retained | Retention times, Immobilized β 2-AR (Immobilized β 2-AR): 49.1 min

CC(C)NCC(O)c1ccccc1Cl (centres unmarked) [clorprenaline]
peak retained or non-retained on β 2-AR column (Immobilized β 2-AR): Retained | Retention times, Immobilized β 2-AR (Immobilized β 2-AR): 9.9 min | Retention times, Immobilized β 2-AR (Immobilized β 2-AR; listed as Clorprenaline): 12.5 min

CN[C@@H](C)[C@H](O)c1ccccc1 [ephedrine, 1R,2S-ephedrine]
Kd (β 2-AR [2]): 168 µM | concentration of the binding site (β 2-AR [2]): (8.92±0.06) ×10^−4 M | capacity factor k′ (β 2-AR [2]; 4 µM ephedrine in mobile phase): 5.01±0.02 | capacity factor k′ (β 2-AR [2]; 8 µM ephedrine in mobile phase): 4.84±0.02 | capacity factor k′ (β 2-AR [2]; [4]): 4.58±0.03 | capacity factor k′ (β 2-AR [2]; 20 µM ephedrine in mobile phase): 4.31±0.01 | capacity factor k′ (β 2-AR [2]; [5]): 4.08±0.01 | capacity factor k′ (β 2-AR [2]; [6]): 3.80±0.01 | capacity factor k′ (β 2-AR [2]; 34 µM ephedrine in mobile phase): 3.64±0.01 | association constant (β 2-AR [2]; direct competitive study, pseudoephedrine injected, ephedrine as mobile phase additive): (5.98±0.24)×10^3 /M | association constant KA (β 2-AR [2]; injection analyte ephedrine (self-competitive)): KA ephedrine = (5.94±0.05)×10^3 M^−1 | association constant KA (β 2-AR [2]; injection analyte ephedrine (self-competitive), listed as 1R,2S-ephedrine): (5.94±0.05)×10^3 M^−1 | association constant KA (β 2-AR [2]; injection analyte pseudoephedrine (direct competitive, ephedrine in mobile phase)): KA ephedrine = (5.98±0.24)×10^3 M^−1 | association constant (β 2-AR [2]; self-competitive study, ephedrine as analyte and competing agent): (5.94±0.05)×10^3 /M | types of binding site on β 2-AR (β 2-AR [2]): Only one type of binding site | binding sites (β 2-AR [3]; 10 °C): 807 µM | decrease of association constant (β 2-AR [3]): 1.4 fold | decrease of capacity factor (β 2-AR [3]): 1.2 fold | increase of binding sites (β 2-AR [3]): 1.2 fold | capacity factor on the β 2-AR column (β 2-AR [3]; 10 °C): 5.40 | contribution of ΔH^θ to ΔG^θ (β 2-AR [3]; 37 °C): 29.15% | contribution of ΔS^θ to ΔG^θ (β 2-AR [3]; 37 °C): 70.85% | binding sites (β 2-AR [3]; 45 °C): 948 µM | capacity factor on the β 2-AR column (β 2-AR [3]; 45 °C): 4.63 | Kd (β 2-AR [3]; 283.15 K): 139 µM | Kd (β 2-AR [3]; 293.15 K): 149 µM | Kd (β 2-AR [3]; 303.15 K): 161 µM | Kd (β 2-AR [3]; 310.15 K): 168 µM | Kd (β 2-AR [3]; 318.15 K): 193 µM | main force of the binding (β 2-AR [3]): Electrostatic interaction | ΔS^θ (β 2-AR [3]): 50.94±0.31 J/mol·K | pD2 (papillary muscle): about 5.95 | Kd (wild-type β 2-AR): 8 µM | Kd (β2-ARGsαS): 5.1 ± 1.3 µM

COC(=O)CCc1ccc(OCC(O)CNC(C)C)cc1 (centres unmarked) [esmolol]
peak retained or non-retained on β 2-AR column (Immobilized β 2-AR): Non-retained | Retention times, Immobilized β 2-AR (Immobilized β 2-AR): 1.6 min

CN[C@@H](C)[C@@H](O)c1ccccc1 [pseudoephedrine, 1S,2S-pseudoephedrine]
concentration of the binding site (β 2-AR [2]): (8.92±0.06) ×10^−4 M | capacity factor k′ (β 2-AR [2]; 2 µM ephedrine in mobile phase): 5.87±0.01 | capacity factor k′ (β 2-AR [2]; 4 µM ephedrine in mobile phase): 5.81±0.01 | capacity factor k′ (β 2-AR [2]; 8 µM ephedrine in mobile phase): 5.73±0.01 | capacity factor k′ (β 2-AR [2]; [4]): 5.66±0.01 | capacity factor k′ (β 2-AR [2]; 16 µM ephedrine in mobile phase): 5.54±0.03 | capacity factor k′ (β 2-AR [2]; [5]): 5.47±0.03 | capacity factor k′ (β 2-AR [2]; [6]): 5.38±0.01 | types of binding site on β 2-AR (β 2-AR [2]): Only one type of binding site | binding sites (β 2-AR [3]; 10 °C): 807 µM | decrease of association constant (β 2-AR [3]): 1.5 fold | decrease of capacity factor (β 2-AR [3]): 1.2 fold | increase of binding sites (β 2-AR [3]): 1.2 fold | capacity factor on the β 2-AR column (β 2-AR [3]; 10 °C): 6.36 | binding sites (β 2-AR [3]; 45 °C): 948 µM | capacity factor on the β 2-AR column (β 2-AR [3]; 45 °C): 5.60 | Kd (β 2-AR [3]; 283.15 K): 202 µM | Kd (β 2-AR [3]; 293.15 K): 239 µM | Kd (β 2-AR [3]; 303.15 K): 249 µM | Kd (β 2-AR [3]; 310.15 K): 263 µM | Kd (β 2-AR [3]; 318.15 K): 299 µM | main force of the binding (β 2-AR [3]): electrostatic forces | ΔS^θ (β 2-AR [3]): 44.13±0.01 J/mol·K | EC50 (β 2-AR [1]): 309 µM

COc1cc2nc(N3CCN(C(=O)C4CCCO4)CC3)nc(N)c2cc1OC (centres unmarked) [terazosin]
peak retained or non-retained on β 2-AR column (Immobilized β 2-AR): Non-retained | Retention times, Immobilized β 2-AR (Immobilized β 2-AR): 1.6 min

CC(C)(C)NCC(O)c1ccccc1Cl (centres unmarked) [tobuterol]
peak retained or non-retained on β 2-AR column (Immobilized β 2-AR): Retained | Retention times, Immobilized β 2-AR (Immobilized β 2-AR): 12.5 min | Retention times, Immobilized β 2-AR (Immobilized β 2-AR; listed as Tobuterol): 9.9 min
